In publication PMC7162861, “Synthesis, cytotoxicity, pharmacokinetic profile, binding with DNA and BSA of new imidazo[1,2-a]pyrazine-benzo[d]imidazol-5-yl hybrids” (Scientific Reports, 2020):

Experiments:
M14 = test: NCI cytotoxicity screen, Melanoma panel; format: cell-based, human; conditions: Homo sapiens, single dose 10 µM, negative = lethal, read-out: Percent growth inhibition
Experimental: (§1) Cytotoxicity was performed at National Cancer Institute (NCI), Bethesda, USA as per their protocols.

LOX IMVI = test: NCI cytotoxicity screen, Melanoma panel; format: cell-based, human; conditions: Homo sapiens, single dose 10 µM, negative = lethal, read-out: Percent growth inhibition
Experimental: as §1

UACC-62 = test: NCI cytotoxicity screen, Melanoma panel; format: cell-based, human; conditions: Homo sapiens, single dose 10 µM, negative = lethal, read-out: Percent growth inhibition
Experimental: as §1

SN12C = test: NCI cytotoxicity screen, Renal Cancer panel; format: cell-based; conditions: Homo sapiens, single dose 10 µM, negative = lethal, read-out: Percent growth inhibition
Experimental: as §1

A498 = test: NCI cytotoxicity screen, Renal Cancer panel; format: cell-based; conditions: Homo sapiens, single dose 10 µM, negative = lethal, read-out: Percent growth inhibition
Experimental: as §1

SNB-19 = test: NCI cytotoxicity screen, CNS Cancer panel; format: cell-based; conditions: Homo sapiens; SNB-19; single dose 10 µM; negative = lethal; read-out: Percent growth inhibition
Experimental: as §1

SNB-75 = test: NCI cytotoxicity screen, CNS Cancer panel; format: cell-based; conditions: Homo sapiens, single dose 10 µM, negative = lethal, read-out: Percent growth inhibition
Experimental: as §1

U251 = test: NCI cytotoxicity screen, CNS Cancer panel; format: cell-based; conditions: Homo sapiens, U-251; U251; single dose 10 µM; negative = lethal; read-out: Percent growth inhibition
Experimental: as §1

SF-539 = test: NCI cytotoxicity screen, CNS Cancer panel; format: cell-based; conditions: Homo sapiens, single dose 10 µM, negative = lethal, read-out: Percent growth inhibition
Experimental: as §1

SF-268 = test: NCI cytotoxicity screen, CNS Cancer panel; format: cell-based; conditions: Homo sapiens, single dose 10 µM, negative = lethal, read-out: Percent growth inhibition
Experimental: as §1

SF-295 = test: NCI cytotoxicity screen, CNS Cancer panel; format: cell-based; conditions: Homo sapiens, single dose 10 µM, negative = lethal, read-out: Percent growth inhibition
Experimental: as §1

[1] = Experimental log P, shake-flask method; format: physicochemical; conditions: n-octanol/phosphate buffer pH 7.4, read-out: Exp. Log P
Experimental: Partition coefficients or experimental log P values of all synthesized compounds (9–23, 30 and 31) were calculated using the shake-flask method. Log P values were determined using n-octanol and phosphate buffer (pH = 7.4) at 10:1 ratio of volumes. Stock solutions (10^−3 M) of compounds were prepared in DMSO. Glass vials were used to make final solutions i.e. stock solution (250 µL) and phosphate buffer (125 µL). To record the absorbance, wavelength was selected based on λmax of the respective compound. Initial absorbance (Ai) for every compound was noted consuming the stock solution in the buffer phase. Now added n-octanol to every vial and shaken well using a mechanical shaker for 50 minutes. To get separation of both phases, glass vials were centrifuged for 35 min. at 2500 rpm. Then, the layer of octanol was separated from glass vial. The final absorbance (Af) of each compound was recorded by using the buffer layer. The values of P for compounds were determined by the following equation (Eq. 8):8 P=Ai−Af/Af×Vw/Vo

NCI/ADR-RES = test: NCI cytotoxicity screen, Ovarian Cancer panel; format: cell-based; conditions: Homo sapiens, single dose 10 µM, negative = lethal, read-out: Percent growth inhibition
Experimental: as §1

OVCAR-8 = test: NCI cytotoxicity screen, Ovarian Cancer panel; format: cell-based; conditions: Homo sapiens, single dose 10 µM, negative = lethal, read-out: Percent growth inhibition
Experimental: as §1

SK-OV-3 = test: NCI cytotoxicity screen, Ovarian Cancer panel; format: cell-based; conditions: Homo sapiens, single dose 10 µM, negative = lethal, read-out: Percent growth inhibition
Experimental: as §1

OVCAR-5 = test: NCI cytotoxicity screen, Ovarian Cancer panel; format: cell-based; conditions: Homo sapiens, single dose 10 µM, negative = lethal, read-out: Percent growth inhibition
Experimental: as §1

OVCAR-4 = test: NCI cytotoxicity screen, Ovarian Cancer panel; format: cell-based; conditions: Homo sapiens; OVCAR-4; single dose 10 µM; negative = lethal; read-out: Percent growth inhibition
Experimental: as §1

IGROV1 = test: NCI cytotoxicity screen, Ovarian Cancer panel; format: cell-based; conditions: Homo sapiens, IGROV-1, single dose 10 µM, negative = lethal, read-out: Percent growth inhibition
Experimental: as §1

786-0 = test: NCI cytotoxicity screen, Renal Cancer panel; format: cell-based, human; conditions: Homo sapiens, single dose 10 µM, negative = lethal, read-out: Percent growth inhibition
Experimental: as §1

TK-10 = test: NCI cytotoxicity screen, Renal Cancer panel; format: cell-based, human; conditions: Homo sapiens, single dose 10 µM, negative = lethal, read-out: Percent growth inhibition
Experimental: as §1

HCT-15 = test: NCI cytotoxicity screen, Colon Cancer panel; format: cell-based; conditions: Homo sapiens, single dose 10 µM, negative = lethal, read-out: Percent growth inhibition
Experimental: as §1

HT29 = test: NCI cytotoxicity screen, Colon Cancer panel; format: cell-based; conditions: Homo sapiens, HT-29; HT29; single dose 10 µM; negative = lethal; read-out: Percent growth inhibition
Experimental: as §1

COLO 205 = test: NCI cytotoxicity screen, Colon Cancer panel; format: cell-based; conditions: Homo sapiens, single dose 10 µM, negative = lethal, read-out: Percent growth inhibition
Experimental: as §1

HCT-116 = test: NCI cytotoxicity screen, Colon Cancer panel; format: cell-based; conditions: Homo sapiens, single dose 10 µM, negative = lethal, read-out: Percent growth inhibition
Experimental: as §1

SK-MEL-5 = test: NCI cytotoxicity screen, Melanoma panel; format: cell-based; conditions: Homo sapiens, single dose 10 µM, negative = lethal, read-out: Percent growth inhibition
Experimental: as §1

UACC-257 = test: NCI cytotoxicity screen, Melanoma panel; format: cell-based; conditions: Homo sapiens, single dose 10 µM, negative = lethal, read-out: Percent growth inhibition
Experimental: as §1

MDA-MB-435 = test: NCI cytotoxicity screen, Melanoma panel; format: cell-based; conditions: Homo sapiens, MDA-MB-435, read-out: Percent growth inhibition
Experimental: as §1

SK-MEL-2 = test: NCI cytotoxicity screen, Melanoma panel; format: cell-based; conditions: Homo sapiens, single dose 10 µM, negative = lethal, read-out: Percent growth inhibition
Experimental: as §1

SK-MEL-28 = test: NCI cytotoxicity screen, Melanoma panel; format: cell-based; conditions: Homo sapiens, single dose 10 µM, negative = lethal, read-out: Percent growth inhibition
Experimental: as §1

MALME-3M = test: NCI cytotoxicity screen, Melanoma panel; format: cell-based; conditions: Homo sapiens; MALME-3M; single dose 10 µM; negative = lethal; read-out: Percent growth inhibition
Experimental: as §1

RPMI-8226 = test: NCI cytotoxicity screen, Leukemia panel; format: cell-based; conditions: Homo sapiens; RPMI-8226; single dose 10 µM; negative = lethal; read-out: Percent growth inhibition
Experimental: as §1

MOLT-4 = test: NCI cytotoxicity screen, Leukemia panel; format: cell-based; conditions: Homo sapiens, MOLT-4, MOLT-4; single dose 10 µM; negative = lethal; read-out: Percent growth inhibition
Experimental: as §1

K-562 = test: NCI cytotoxicity screen, Leukemia panel; format: cell-based; conditions: Homo sapiens, K562; K-562; single dose 10 µM; negative = lethal; read-out: Percent growth inhibition
Experimental: as §1

CCRF-CEM = test: NCI cytotoxicity screen, Leukemia panel; format: cell-based; conditions: Homo sapiens, single dose 10 µM, negative = lethal, read-out: Percent growth inhibition
Experimental: as §1

HL-60(TB) = test: NCI cytotoxicity screen, Leukemia panel; format: cell-based; conditions: Homo sapiens, HL-60, HL-60(TB); single dose 10 µM; negative = lethal; read-out: Percent growth inhibition
Experimental: as §1

SR = test: NCI cytotoxicity screen, Leukemia panel; format: cell-based; conditions: Homo sapiens, single dose 10 µM, negative = lethal, read-out: Percent growth inhibition
Experimental: as §1

SW-620 = test: NCI cytotoxicity screen, Colon Cancer panel; format: cell-based, human; conditions: Homo sapiens, single dose 10 µM, negative = lethal, read-out: Percent growth inhibition
Experimental: as §1

KM12 = test: NCI cytotoxicity screen, Colon Cancer panel; format: cell-based, human; conditions: Homo sapiens, single dose 10 µM, negative = lethal, read-out: Percent growth inhibition
Experimental: as §1

HCC-2998 = test: NCI cytotoxicity screen, Colon Cancer panel; format: cell-based, human; conditions: Homo sapiens; HCC-2998; single dose 10 µM; negative = lethal; read-out: Percent growth inhibition
Experimental: as §1

DU-145 = test: NCI cytotoxicity screen, Prostate Cancer panel; format: cell-based, human; conditions: Homo sapiens, single dose 10 µM, negative = lethal, read-out: Percent growth inhibition
Experimental: as §1

PC-3 = test: NCI cytotoxicity screen, Prostate Cancer panel; format: cell-based, human; conditions: Homo sapiens, single dose 10 µM, negative = lethal, read-out: Percent growth inhibition
Experimental: as §1

OVCAR-3 = test: NCI cytotoxicity screen, Ovarian Cancer panel; format: cell-based, human; conditions: Homo sapiens; OVCAR-3; single dose 10 µM; negative = lethal; read-out: Percent growth inhibition
Experimental: as §1

## c1ccc(-c2cn3ccnc3c(-c3ccc4c(c3)ncn4C3CCCCC3)n2)cc1 [Compound 9, 8-(1-cyclohexyl-1H-benzo[d]imidazol-5-yl)-6-phenylimidazo[1,2-a]pyrazine]
M14
  inhibition at 10 µM: 1.61%
LOX IMVI
  inhibition at 10 µM: 4.86%
UACC-62
  inhibition at 10 µM: 2.01%
SN12C
  inhibition at 10 µM: 4.83%
A498
  inhibition at 10 µM: < 1%
SNB-19
  inhibition at 10 µM: 1.72%
SNB-75
  inhibition at 10 µM: 5.65%
U251
  inhibition at 10 µM: 4.44%
SF-539
  inhibition at 10 µM: 2.17%
SF-268
  inhibition at 10 µM: 1.33%
SF-295
  inhibition at 10 µM: < 1%
[1]
  logP: 1.59
NCI/ADR-RES
  inhibition at 10 µM: < 1%
OVCAR-8
  inhibition at 10 µM: < 1%
SK-OV-3
  inhibition at 10 µM: < 1%
OVCAR-5
  inhibition at 10 µM: < 1%
OVCAR-4
  inhibition at 10 µM: < 1%
IGROV1
  inhibition at 10 µM: < 1%
786-0
  inhibition at 10 µM: 8.24%
TK-10
  inhibition at 10 µM: < 1%
HCT-15
  inhibition at 10 µM: 19.1%
HT29
  inhibition at 10 µM: 9.21%
COLO 205
  inhibition at 10 µM: 0.28%
HCT-116
  inhibition at 10 µM: 3.81%
SK-MEL-5
  inhibition at 10 µM: 5.71%
UACC-257
  inhibition at 10 µM: < 1%
MDA-MB-435
  inhibition at 10 µM: 0.53%
SK-MEL-2
  inhibition at 10 µM: < 1%
SK-MEL-28
  inhibition at 10 µM: < 1%
MALME-3M
  inhibition at 10 µM: < 1%
RPMI-8226
  inhibition at 10 µM: 18.3%
MOLT-4
  inhibition at 10 µM: 39.7%
K-562
  inhibition at 10 µM: 31.1%
CCRF-CEM
  inhibition at 10 µM: 11.7%
HL-60(TB)
  inhibition at 10 µM: 19.4%
SR
  inhibition at 10 µM: 44.6%
SW-620
  inhibition at 10 µM: < 1%
KM12
  inhibition at 10 µM: 5.7%
HCC-2998
  inhibition at 10 µM: < 1%
DU-145
  inhibition at 10 µM: 2.64%
PC-3
  inhibition at 10 µM: 13.5%
OVCAR-3
  inhibition at 10 µM: < 1%

## COc1ccc(-c2cn3ccnc3c(-c3ccc4c(c3)ncn4C3CCCCC3)n2)cc1 [Compound 10, 8-(1-cyclohexyl-1H-benzo[d]imidazol-5-yl)-6-(4-methoxyphenyl)imidazo[1,2-a]pyrazine]
M14
  inhibition at 10 µM: 9.96%
LOX IMVI
  inhibition at 10 µM: 7.86%
UACC-62
  inhibition at 10 µM: 1.25%
SN12C
  inhibition at 10 µM: < 1%
A498
  inhibition at 10 µM: < 1%
SNB-19
  inhibition at 10 µM: 4.26%
SNB-75
  inhibition at 10 µM: 15.9%
U251
  inhibition at 10 µM: 3.4%
SF-539
  inhibition at 10 µM: 9.71%
SF-268
  inhibition at 10 µM: 3.96%
SF-295
  inhibition at 10 µM: 12.5%
[1]
  logP: 1.44
NCI/ADR-RES
  inhibition at 10 µM: 1.93%
OVCAR-8
  inhibition at 10 µM: 7.75%
SK-OV-3
  inhibition at 10 µM: 5.37%
OVCAR-5
  inhibition at 10 µM: 1.45%
OVCAR-4
  inhibition at 10 µM: 7.51%
IGROV1
  inhibition at 10 µM: 5.82%
786-0
  inhibition at 10 µM: 12.7%
TK-10
  inhibition at 10 µM: < 1%
HCT-15
  inhibition at 10 µM: 11.9%
HT29
  inhibition at 10 µM: < 1%
COLO 205
  inhibition at 10 µM: < 1%
HCT-116
  inhibition at 10 µM: 18.6%
SK-MEL-5
  inhibition at 10 µM: 5.95%
UACC-257
  inhibition at 10 µM: < 1%
MDA-MB-435
  inhibition at 10 µM: 6.92%
SK-MEL-2
  inhibition at 10 µM: 9.88%
SK-MEL-28
  inhibition at 10 µM: 4.86%
MALME-3M
  inhibition at 10 µM: < 1%
RPMI-8226
  inhibition at 10 µM: 14.7%
MOLT-4
  inhibition at 10 µM: 34.2%
K-562
  inhibition at 10 µM: 29.2%
CCRF-CEM
  inhibition at 10 µM: 1.19%
HL-60(TB)
  inhibition at 10 µM: 23.3%
SR
  inhibition at 10 µM: 29.7%
SW-620
  inhibition at 10 µM: < 1%
KM12
  inhibition at 10 µM: 2.27%
HCC-2998
  inhibition at 10 µM: < 1%
DU-145
  inhibition at 10 µM: < 1%
PC-3
  inhibition at 10 µM: 22.6%
OVCAR-3
  inhibition at 10 µM: < 1%
